ChEMBL document CHEMBL4627352, “New acrylamide-sulfisoxazole conjugates as dihydropteroate synthase inhibitors” (Bioorg Med Chem, 2020)
≈ marks a conversion by molar mass, not a printed value. Calls of active or inactive are those of the source. The calls are words filed in the database; no cut-off is given here.

Columns and labels:
[1] = test system: Streptococcus pneumoniae; assay: Inhibition of DHPS in Streptococcus pneumoniae assessed as antibacterial activity by measuring inhibition zone at 5 mg/mL incubated for 24 hrs by disk diffusion method
[2] = test system: Bacillus subtilis; assay: Inhibition of DHPS in Bacillus subtilis assessed as antibacterial activity by measuring inhibition zone at 5 mg/mL incubated for 24 hrs by disk diffusion method
[3] = test system: Staphylococcus epidermidis; assay: Inhibition of DHPS in Staphylococcus epidermidis assessed as antibacterial activity by measuring inhibition zone at 5 mg/mL incubated for 24 hrs by disk diffusion method
[4] = test system: Escherichia coli; assay: Inhibition of DHPS in Escherichia coli assessed as antibacterial activity by measuring inhibition zone at 5 mg/mL incubated for 24 hrs by disk diffusion method
[5] = test system: Proteus vulgaris; assay: Inhibition of DHPS in Proteus vulgaris assessed as antibacterial activity by measuring inhibition zone at 5 mg/mL incubated for 24 hrs by disk diffusion method
[6] = test system: Klebsiella pneumoniae; assay: Inhibition of DHPS in Klebsiella pneumoniae assessed as antibacterial activity by measuring inhibition zone at 5 mg/mL incubated for 24 hrs by disk diffusion method
[7] = test system: Streptococcus pneumoniae; assay: Inhibition of DHPS in Streptococcus pneumoniae assessed as antibacterial activity by measuring inhibition of bacterial growth incubated for 24 hrs by microbroth dilution method
[8] = test system: Bacillus subtilis; assay: Inhibition of DHPS in Bacillus subtilis assessed as antibacterial activity by measuring inhibition of bacterial growth incubated for 24 hrs by microbroth dilution method
[9] = test system: Staphylococcus epidermidis; assay: Inhibition of DHPS in Staphylococcus epidermidis assessed as antibacterial activity by measuring inhibition of bacterial growth incubated for 24 hrs by microbroth dilution method
[10] = test system: Escherichia coli; assay: Inhibition of DHPS in Escherichia coli assessed as antibacterial activity by measuring inhibition of bacterial growth incubated for 24 hrs by microbroth dilution method
[11] = test system: Proteus vulgaris; assay: Inhibition of DHPS in Proteus vulgaris assessed as antibacterial activity by measuring inhibition of bacterial growth incubated for 24 hrs by microbroth dilution method
[12] = test system: Klebsiella pneumoniae; assay: Inhibition of DHPS in Klebsiella pneumoniae assessed as antibacterial activity by measuring inhibition of bacterial growth incubated for 24 hrs by microbroth dilution method
[13] = test system: Aspergillus fumigatus; assay: Inhibition of DHPS in Aspergillus fumigatus assessed as antifungal activity by measuring inhibition zone at 5 mg/mL incubated for 48 hrs by disk diffusion method
[14] = test system: Syncephalastrum racemosum; assay: Inhibition of DHPS in Syncephalastrum racemosum assessed as antifungal activity by measuring inhibition zone at 5 mg/mL incubated for 48 hrs by disk diffusion method
[15] = test system: Geotrichum candidum; assay: Inhibition of DHPS in Geotrichum candidum assessed as antifungal activity by measuring inhibition zone at 5 mg/mL incubated for 48 hrs by disk diffusion method
[16] = test system: Aspergillus fumigatus; assay: Inhibition of DHPS in Aspergillus fumigatus assessed as antifungal activity by measuring inhibition of fungal growth incubated for 48 hrs by microbroth dilution method
[17] = test system: Syncephalastrum racemosum; assay: Inhibition of DHPS in Syncephalastrum racemosum assessed as antifungal activity by measuring inhibition of fungal growth incubated for 48 hrs by microbroth dilution method
[18] = test system: Geotrichum candidum; assay: Inhibition of DHPS in Geotrichum candidum assessed as antifungal activity by measuring inhibition of fungal growth incubated for 48 hrs by microbroth dilution method
[19] = test system: Escherichia coli ATCC 25922; assay: Inhibition of DHPS in Escherichia coli ATCC 25922 assessed as inhibition of bacterial growth incubated for 24 hrs in presence of folate precursor, pABA by microbroth dilution method
[20] = test system: Escherichia coli ATCC 25922; assay: Inhibition of DHPS in Escherichia coli ATCC 25922 assessed as inhibition of bacterial growth incubated for 24 hrs in presence of folate dependent metabolite, methionine by microbroth dilution method
[21] = test system: Aspergillus fumigatus; assay: Potency index, ratio of sulfisoxazole MIC to compound MIC for Aspergillus fumigatus assessed as inhibition of DHPS-mediated fungal growth incubated for 48 hrs by microbroth dilution method
[22] = test system: Geotrichum candidum; assay: Potency index, ratio of sulfisoxazole MIC to compound MIC for Geotrichum candidum assessed as inhibition of DHPS-mediated fungal growth incubated for 48 hrs by microbroth dilution method
[23] = test system: Escherichia coli; assay: Potency index, ratio of sulfisoxazole MIC to compound MIC for Escherichia coli assessed as inhibition of DHPS-mediated bacterial growth incubated for 24 hrs by microbroth dilution method
[24] = test system: Syncephalastrum racemosum; assay: Potency index, ratio of sulfisoxazole MIC to compound MIC for Syncephalastrum racemosum assessed as inhibition of DHPS-mediated fungal growth incubated for 48 hrs by microbroth dilution method
[25] = test system: hTERT-BJ; assay: Cytotoxicity against human hTERT-BJ1 cells at 50 uM by acid phosphatase assay relative to control; assay type: cell-based
[26] = test system: Syncephalastrum racemosum; assay: Potency index, ratio of amphotericin B MIC to compound MIC for Syncephalastrum racemosum assessed as inhibition of DHPS-mediated fungal growth incubated for 48 hrs by microbroth dilution method
[27] = test system: Staphylococcus epidermidis; assay: Potency index, ratio of sulfisoxazole MIC to compound MIC for Staphylococcus epidermidis assessed as inhibition of DHPS-mediated bacterial growth incubated for 24 hrs by microbroth dilution method
[28] = test system: Klebsiella pneumoniae; assay: Potency index, ratio of sulfisoxazole MIC to compound MIC for Klebsiella pneumoniae assessed as inhibition of DHPS-mediated bacterial growth incubated for 24 hrs by microbroth dilution method

| Compound | inhibition zone (IZ) [1] [mm] | inhibition zone (IZ) [2] [mm] | inhibition zone (IZ) [3] [mm] | inhibition zone (IZ) [4] [mm] | inhibition zone (IZ) [5] | inhibition zone (IZ) [6] [mm] | MIC [7] [µg/mL] | MIC [8] [µg/mL] | MIC [9] [µg/mL] | MIC [10] [µg/mL] | MIC [11] [µg/mL] | MIC [12] [µg/mL] | inhibition zone (IZ) [13] [mm] | inhibition zone (IZ) [14] [mm] | inhibition zone (IZ) [15] [mm] | MIC [16] [µg/mL] | MIC [17] [µg/mL] | MIC [18] [µg/mL] | inhibition [19] | inhibition [20] | other results |
| --- | --- | --- | --- | --- | --- | --- | --- | --- | --- | --- | --- | --- | --- | --- | --- | --- | --- | --- | --- | --- | --- |
| C=CCN/C(S[C@@H]1O[C@H](COC(C)=O)[C@@H](OC(C)=O)[C@H](OC(C)=O)[C@H]1OC(C)=O)=C(/C#N)C(=O)Nc1ccc(S(=O)(=O)Nc2onc(C)c2C)cc1 | 26.7 | 28.6 | 25.6 | 23.4 | inactive | 23.2 | 1.95 (≈ 2.55 µM) | 0.98 (≈ 1.28 µM) | 3.9 (≈ 5.11 µM) | 3.9 (≈ 5.11 µM) | – | 0.49 (≈ 0.642 µM) | 26.1 | 24.4 | 23.2 | 0.98 (≈ 1.28 µM) | 1.95 (≈ 2.55 µM) | 0.49 (≈ 0.642 µM) | inactive | inactive | Activity [25]: 15.2%; Ratio [26]: 2; Ratio [21]: 4 to 6; Ratio [23]: 4; Ratio [22]: 3 to 5 |
| CN/C(S)=C(/C#N)C(=O)Nc1ccc(S(=O)(=O)Nc2onc(C)c2C)cc1 | 20.3 | 22.4 | 20.8 | 20.6 | 18.3 mm | 22.6 | 3.9 (≈ 9.57 µM) | 0.98 (≈ 2.41 µM) | 1.95 (≈ 4.79 µM) | 1.95 (≈ 4.79 µM) | 7.81 (≈ 19.2 µM) | 0.98 (≈ 2.41 µM) | 18.6 | 17.2 | 18.9 | 3.9 (≈ 9.57 µM) | 15.6 (≈ 38.4 µM) | 3.9 (≈ 9.57 µM) | inactive | inactive | Ratio [21]: 4; Ratio [27]: 4; Ratio [28]: 3; Ratio [22]: 2 |
| CCS/C(NC)=C(\C#N)C(=O)Nc1ccc(S(=O)(=O)Nc2onc(C)c2C)cc1 | 20.2 | 21.2 | 20.9 | 18.2 | 16.4 mm | 21.3 | 3.9 (≈ 8.95 µM) | 0.98 (≈ 2.25 µM) | 1.95 (≈ 4.48 µM) | 7.81 (≈ 17.9 µM) | 31.2 (≈ 71.8 µM) | 1.95 (≈ 4.48 µM) | 17.1 | 19.9 | 18.3 | 15.6 (≈ 35.9 µM) | 3.9 (≈ 8.95 µM) | 7.81 (≈ 17.9 µM) | inactive | inactive | Activity [25]: 2.7%; Ratio [26]: 2 |

Further lines, with some results ahead:

| inhibition zone (IZ) [1] [mm] | inhibition zone (IZ) [2] [mm] | inhibition zone (IZ) [3] [mm] | inhibition zone (IZ) [4] [mm] | inhibition zone (IZ) [5] | inhibition zone (IZ) [6] [mm] | MIC [7] [µg/mL] | MIC [8] [µg/mL] | MIC [9] [µg/mL] | MIC [10] [µg/mL] | MIC [11] [µg/mL] | MIC [12] [µg/mL] | inhibition zone (IZ) [13] [mm] | inhibition zone (IZ) [14] [mm] | inhibition zone (IZ) [15] [mm] | MIC [16] [µg/mL] | MIC [17] [µg/mL] | MIC [18] [µg/mL] | inhibition [19] | inhibition [20] | Compound | other results |
| --- | --- | --- | --- | --- | --- | --- | --- | --- | --- | --- | --- | --- | --- | --- | --- | --- | --- | --- | --- | --- | --- |
| 25.3 | 27.5 | 24.7 | 21.3 | 21.4 mm | 18.8 | 3.9 (≈ 5.19 µM) | 1.95 (≈ 2.59 µM) | 3.9 (≈ 5.19 µM) | 7.81 (≈ 10.4 µM) | 7.81 (≈ 10.4 µM) | 0.98 (≈ 1.3 µM) | 24.2 | 21.3 | 22.1 | 3.9 (≈ 5.19 µM) | 15.6 (≈ 20.8 µM) | 0.98 (≈ 1.3 µM) | inactive | inactive | CCN/C(S[C@@H]1O[C@H](COC(C)=O)[C@@H](OC(C)=O)[C@H](OC(C)=O)[C@H]1OC(C)=O)=C(/C#N)C(=O)Nc1ccc(S(=O)(=O)Nc2onc(C)c2C)cc1 | Ratio [21]: 4 to 6; Ratio [22]: 3 to 5 |
| 18.9 | 17.6 | 16.3 | 17.1 | 13.4 mm | 19.8 | 7.8 (≈ 10.4 µM) | 7.8 (≈ 10.4 µM) | 31.2 (≈ 41.6 µM) | 7.81 (≈ 10.4 µM) | 125 (≈ 166 µM) | 7.81 (≈ 10.4 µM) | 17.2 | 15.9 | 18.3 | 15.6 (≈ 20.8 µM) | 31.2 (≈ 41.6 µM) | 31.2 (≈ 41.6 µM) | inactive | inactive | CCN/C(S[C@@H]1O[C@H](COC(C)=O)[C@H](OC(C)=O)[C@H](OC(C)=O)[C@H]1OC(C)=O)=C(/C#N)C(=O)Nc1ccc(S(=O)(=O)Nc2onc(C)c2C)cc1 | Ratio [21]: 1 to 3; Ratio [23]: 3; Ratio [24]: 1 to 3 |
